The numbers were not newly measured in article PMC13517605, “In Vitro Three-Dimensional Human Liver Model for Drug-Induced Liver and Bile Duct Injury Prediction” (Toxics, 2026), which cites them from elsewhere.

For the data set the following is noted: maximum plasma concentration in humans.

Molecules are shown by their SMILES.

For the compound `[H]/N=C(/N)N[C@H]1[C@H](O)[C@@H](O)[C@H](O[C@@H]2O[C@@H](C)[C@](O)(C=O)[C@H]2O[C@@H]2O[C@@H](CO)[C@H](O)[C@@H](O)[C@@H]2NC)[C@@H](N/C(N)=N\[H])[C@@H]1O` [Streptomycin, streptomycin], the Cmax is 52.3 µM.

In general, Cmax refers to the highest concentration seen after dosing.
